According to patent publication US20140235630A1, “COMPOSITIONS AND METHODS FOR THE TREATMENT OF PROLIFERATIVE DISEASES” (Beth Israel Deaconess Medical Center, Inc., priority 2011, published 2014):

Tests used:
blood vessels in tumors = conditions: in vivo; cited from earlier work
[1] = system: mouse lung tumors with transgenic H1047R mutant of PIK3CA; conditions: within two days; cited from earlier work
HCC1937 cells = test: DNA damage response immunoblots with or without ionizing radiation (10 Gy); type: cell-based, human
Description: FIG. 5A are immunoblots showing the effects of Compound A, ATM inhibitor KU-55933, and their combination on the DNA damage response. HCC1937 were treated for 18 hours with Compound A at 2.5 μM, KU55933 at 10 μM, or their combination, subjected to ionizing irradiation with 10 Gy or mock, lysed 6 hours later, and subjected to immunoblotting. […] Immunoblots were performed using the Nupage System (Invitrogen). The protein concentration was determined using Bradford reagent (Biorad). A total of 20 μg of protein were loaded, except for PAR, Phospho ATM and Phospho DNA-PK/PRKDC western blots, where 40 μg were loaded. Tumor tissue lysates were prepared similarly with the exception of tissue homogenization by using an electric homogenizer for 30 secs after addition of the lysis buffer. Primary antibodies used for western blotting were total AKT (9272), Cleaved […] 3 (9661), total ERK (4695), Phospho AKT Ser473 (4058), Phospho ERK Thr202/Tyr204 (9106), Phospho-Histone H2AX Ser139 (2577), PTEN (9559) from Cell Signaling. Phospho ATM […] (2152-1), Phospho DNA-PK/PRKDC […] (3892-1) from Epitomics, Inc. CD31 (ab28364), Actin (ab6276), INPP4B (ab81269) from Abcam; pADPr (sc56198) from Santacruz Biotechnology; and Ki-67 (RM-9106) was purchased from Thermo Scientific.

Row | Structure (SMILES) | sprouting of new blood vessels in tumors (blood vessels in tumors) | FDG-PET signal [1] | H2AX phosphorylation in response to ionizing radiation (HCC1937 cells; 18 hours pre-treatment, 10 Gy, lysed 6 hours later) | auto-phosphorylation of ATM (HCC1937 cells; KU-55933 10 μM, 18 hours)
1 | Cn1c(=O)n(-c2ccc(C(C)(C)C#N)cc2)c2c3cc(-c4cnc5ccccc5c4)ccc3ncc21 [BEZ235] | inhibits the sprouting of new blood vessels | caused a reduction in the FDG-PET signal |  | 
2 | O=c1cc(-c2cccc3c2Sc2ccccc2S3)oc(N2CCOCC2)c1 [KU-55933, reference compound] |  |  | prevented the increase | decrease
